Data as given in publication PMC7031696 (Cell chemical biology, 2019).
Read-outs that look alike come from different tables or passages of the source.

Key:
[1] = system: 3D7-MR4 trophozoite parasite-infected RBCs; assay: Metabolomic profiling (hydrophilic metabolite changes, UHPLC-MS); assay type: cell-based, Plasmodium falciparum
[2] = system: asynchronous 3D7-A10 parasite cultures; assay: Standard 72-h exposure asexual blood stage susceptibility assay (IC50^72h); assay type: cell-based, Plasmodium falciparum; conditions: Plasmodium falciparum, 3D7, 72 h, read-out: Overall (72hr assay) Mean IC50 (IC50^72h)
[3] = system: Plasmodium falciparum 3D7-A10 parasites; assay: Stage specificity assay (8-h exposure of synchronized stages, IC50^8h); assay type: cell-based; conditions: Plasmodium falciparum

SMILES: O=C(Nc1ccc(N2CCNCC2)cc1)c1ccn2ncc(-c3cccc(Cl)c3)c2n1.O=C(O)C(F)(F)F [MMV022478]
- peptide levels (hemoglobin catabolism signature) ([1]; 10 × IC50^72h, 2.5 hr, trophozoites): decreased peptide levels
- Log2(fold changes) 3-phosphoglycerate ([1]; metabolite 3-phosphoglycerate, log2 fold change): -0.2221
- Log2(fold changes) 4-Pyridoxic acid ([1]; metabolite 4-Pyridoxic acid, log2 fold change): 0.0000
- Log2(fold changes) 4-aminobutyrate ([1]; metabolite 4-aminobutyrate, log2 fold change): -1.1535
- Log2(fold changes) 4-phosphopantetheine ([1]; metabolite 4-phosphopantetheine, log2 fold change): 0.0000
- Log2(fold changes) 4-phosphopantothenate ([1]; metabolite 4-phosphopantothenate, log2 fold change): -2.5840
- Log2(fold changes) 5-aminopentanoic acid ([1]; metabolite 5-aminopentanoic acid, log2 fold change): 0.0000
- Log2(fold changes) 5-methyl-THF ([1]; metabolite 5-methyl-THF, log2 fold change): 0.0000
- Log2(fold changes) 5-phosphoribosyl-1-pyrophosphate ([1]; metabolite 5-phosphoribosyl-1-pyrophosphate, log2 fold change): -3.8277
- Log2(fold changes) 6-phospho-D-gluconate ([1]; metabolite 6-phospho-D-gluconate, log2 fold change): -1.2363
- Log2(fold change) HVDD ([1]; metabolite HVDD): -6.0354
- Log2(fold change) Hydroxyisocaproic acid ([1]; metabolite Hydroxyisocaproic acid): 0.0000
- Log2(fold change) IDP ([1]; metabolite IDP): 0.0000
- Log2(fold change) IMP ([1]; metabolite IMP): -1.9723
- Log2(fold change) Inositol ([1]; metabolite Inositol): 0.0000
- Log2(fold change) Isopentyl-PP ([1]; metabolite Isopentyl-PP): 0.0000
- Log2(fold change) L-arginino-succinate ([1]; metabolite L-arginino-succinate): 0.0000
- Log2(fold change) LD ([1]; metabolite LD): 0.0000
- Log2(fold change) Myristoyl/tetradecanoyl-CoA ([1]; metabolite Myristoyl/tetradecanoyl-CoA): 0.0000
- Log2(fold change) N-Acetyl-L-alanine ([1]; metabolite N-Acetyl-L-alanine): -4.1046
- Log2(fold change) N-acetyl-L-ornithine ([1]; metabolite N-acetyl-L-ornithine): -4.9077
- Log2(fold change) N-acetyl-glucosamine-1/6-phosphate ([1]; metabolite N-acetyl-glucosamine-1/6-phosphate): -2.7078
- Log2(fold change) N-acetyl-glutamate ([1]; metabolite N-acetyl-glutamate): -2.2943
- Log2(fold change) N-acetyl-glutamine ([1]; metabolite N-acetyl-glutamine): 0.0000
- Log2(fold change) N-carbamoyl-L-aspartate ([1]; metabolite N-carbamoyl-L-aspartate): -4.4049
- Log2(fold change) NAD+ ([1]; metabolite NAD+): 0.0000
- Log2(fold change) NADH ([1]; metabolite NADH): 0.4682
- Log2(fold change) NADP+ ([1]; metabolite NADP+): -1.0797
- Log2(fold change) NADPH ([1]; metabolite NADPH): -1.0955
- Log2(fold change) O-acetyl-L-serine ([1]; metabolite O-acetyl-L-serine): 0.0000
- Log2(fold change) Octoluse 8/1P ([1]; metabolite Octoluse 8/1P): 0.0000
- Log2(fold change) Octoluse Bisphosphate ([1]; metabolite Octoluse Bisphosphate): -0.1243
- Log2(fold change) PD ([1]; metabolite PD): -4.6260
- Log2(fold change) PE ([1]; metabolite PE): -5.1379
- Log2(fold change) PEE ([1]; metabolite PEE): -4.6436
- Log2(fold change) PEEK ([1]; metabolite PEEK): 0.0000
- Log2(fold change) PVNF ([1]; metabolite PVNF): -7.1540
- Log2(fold change) Pyroglutamic acid ([1]; metabolite Pyroglutamic acid): 0.0000
- Log2(fold change) Pyrophosphate ([1]; metabolite Pyrophosphate): 0.0000
- Log2(fold change) Ribose-5-phosphate ([1]; metabolite Ribose-5-phosphate): -2.7334
- Log2(fold change) S-adenosyl-L-homocysteine ([1]; metabolite S-adenosyl-L-homocysteine): -2.8781
- Log2(fold change) S-adenosyl-L-methioninamine ([1]; metabolite S-adenosyl-L-methioninamine): 0.0000
- Log2(fold change) S-adenosyl-L-methionine ([1]; metabolite S-adenosyl-L-methionine): 0.0000
- Log2(fold change) S-methyl-5'-thioadenosine ([1]; metabolite S-methyl-5'-thioadenosine): 0.0000
- Log2(fold change) SD ([1]; metabolite SD): -2.2622
- Log2(fold change) SDL ([1]; metabolite SDL): 0.0000
- Log2(fold change) SID ([1]; metabolite SID): -5.7557
- Log2(fold change) Sedoheptulose bisphosphate ([1]; metabolite Sedoheptulose bisphosphate): -0.2613
- Log2(fold change) Thiamine pyrophosphate ([1]; metabolite Thiamine pyrophosphate): 0.0000
- Log2(fold changes) UDP-D-glucose ([1]; metabolite UDP-D-glucose, log2 fold change): -0.2797
- Log2(fold changes) UDP-D-glucuronate ([1]; metabolite UDP-D-glucuronate, log2 fold change): -0.6750
- Log2(fold changes) UDP-N-acetyl-glucosamine ([1]; metabolite UDP-N-acetyl-glucosamine, log2 fold change): -0.7739
- Log2(fold changes) UDP ([1]; metabolite UDP, log2 fold change): -2.1596
- Log2(fold changes) UMP ([1]; metabolite UMP, log2 fold change): -1.4504
- Log2(fold changes) UTP ([1]; metabolite UTP, log2 fold change): -1.2572
- Log2(fold change) hydroxyphenylpyruvate ([1]; metabolite hydroxyphenylpyruvate): 0.0000
- Log2(fold change) hydroxyproline/Aminolevulinate ([1]; metabolite hydroxyproline/Aminolevulinate): -0.1426
- Log2(fold change) hypoxanthine ([1]; metabolite hypoxanthine): 0.3419
- Log2(fold change) indole ([1]; metabolite indole): 0.0000
- Log2(fold change) inosine ([1]; metabolite inosine): -0.5164
- Log2(fold change) isoleucine ([1]; metabolite isoleucine): 0.2629
- Log2(fold change) lactate ([1]; metabolite lactate): -0.9550
- Log2(fold change) leucine ([1]; metabolite leucine): 0.0229
- Log2(fold change) lysine ([1]; metabolite lysine): 0.0000
- Log2(fold change) malate ([1]; metabolite malate): -1.9880
- Log2(fold change) maleic acid ([1]; metabolite maleic acid): -2.0576
- Log2(fold change) methionine ([1]; metabolite methionine): 0.4668
- Log2(fold change) myo-inositol ([1]; metabolite myo-inositol): 0.0000
- Log2(fold change) nicotinamide mononucleotide ([1]; metabolite nicotinamide mononucleotide): 0.0000
- Log2(fold change) nicotinate ([1]; metabolite nicotinate): -0.5789
- Log2(fold change) ornithine ([1]; metabolite ornithine): 0.0000
- Log2(fold change) orotate ([1]; metabolite orotate): -1.4233
- Log2(fold change) orotidine-5'-phosphate ([1]; metabolite orotidine-5'-phosphate): -3.1182
- Log2(fold change) oxaloacetate ([1]; metabolite oxaloacetate): 0.0000
- Log2(fold change) p-aminobenzoate ([1]; metabolite p-aminobenzoate): 0.0000
- Log2(fold change) p-hydroxybenzoate ([1]; metabolite p-hydroxybenzoate): 0.0000
- Log2(fold change) pantothenate ([1]; metabolite pantothenate): -0.7783
- Log2(fold change) phenylalanine ([1]; metabolite phenylalanine): -0.1127
- Log2(fold change) phenylpyruvate ([1]; metabolite phenylpyruvate): 0.0000
- Log2(fold change) phosphoenolpyruvate ([1]; metabolite phosphoenolpyruvate): 0.1262
- Log2(fold change) prephenate ([1]; metabolite prephenate): 0.0000
- Log2(fold change) proline ([1]; metabolite proline): -0.3073
- Log2(fold change) pyridoxine ([1]; metabolite pyridoxine): 0.2157
- Log2(fold change) pyruvate ([1]; metabolite pyruvate): -1.6686
- Log2(fold change) riboflavin ([1]; metabolite riboflavin): 0.0000
- Log2(fold change) ribose ([1]; metabolite ribose): 0.4922
- Log2(fold change) ribose-phosphate ([1]; metabolite ribose-phosphate): -2.5305
- Log2(fold change) ribulose-5-phosphate ([1]; metabolite ribulose-5-phosphate): -2.3648
- Log2(fold change) serine ([1]; metabolite serine): -0.3911
- Log2(fold change) sn-glycerol-3-phosphate ([1]; metabolite sn-glycerol-3-phosphate): -0.4279
- Log2(fold change) succinate/Methylmalonic acid ([1]; metabolite succinate/Methylmalonic acid): -3.0813
- Log2(fold change) succinyl-CoA/methylmalonyl-CoA ([1]; metabolite succinyl-CoA/methylmalonyl-CoA): -1.6128
- Log2(fold change) taurine ([1]; metabolite taurine): 0.0000
- Log2(fold change) thiamine ([1]; metabolite thiamine): 0.0000
- Log2(fold change) threonine/homoserine ([1]; metabolite threonine/homoserine): -0.6870
- Log2(fold change) thymidine ([1]; metabolite thymidine): 0.0000
- Log2(fold changes) thymine ([1]; metabolite thymine, log2 fold change): 0.0000
- Log2(fold changes) trehalose-6-Phosphate ([1]; metabolite trehalose-6-Phosphate, log2 fold change): 0.0000
- Log2(fold changes) tryptophan ([1]; metabolite tryptophan, log2 fold change): 0.1771
- Log2(fold changes) tyrosine ([1]; metabolite tyrosine, log2 fold change): -0.0043
- Log2(fold changes) uridine ([1]; metabolite uridine, log2 fold change): 0.0000
- IC50 [2]: 11.1 nM
- IC50 ([3]; 3D7, 8 h, read-out: IC50^8h values at all tested stages, 8-h exposures, all asexual blood stages): > 1 µM
- IC50 ([3]; 3D7, read-out: Early rings Mean IC50 (IC50^8h), 8-h exposure 0–8 hr, 3D7-A10, survival at 60 h): 7.63 µM
- IC50 ([3]; 3D7, read-out: Early trophozoites Mean IC50 (IC50^8h), 8-h exposure 16–24 hr, 3D7-A10, survival at 60 h): 2.13 µM
- IC50 ([3]; 3D7, read-out: Late rings Mean IC50 (IC50^8h), 8-h exposure 8–16 hr, 3D7-A10, survival at 60 h): 4.87 µM
- IC50 ([3]; 3D7, read-out: Late trophozoites Mean IC50 (IC50^8h), 8-h exposure 24–32 hr, 3D7-A10, survival at 60 h): 2.53 µM
- IC50 ([3]; 3D7, read-out: Schizonts Mean IC50 (IC50^8h), 8-h exposure 32–40 hr, 3D7-A10, survival at 60 h): 3.37 µM
